Results taken from the NIST ThermoML archive (doi:10.1021/je034162x).

Settings: 101.33 kPa, Liquid, Hot wire method

C1CCCCC1 [cyclohexane]
Settings | thermal conductivity [W/m/K] | thermal diffusivity [m2/s]
280.83 K | 0.1232 | –
281 K | 0.1231 | –
281.15 K | 0.123 | –
281.38 K | – | 8.75e-08
281.78 K | – | 8.73e-08
282.12 K | – | 8.75e-08
295.53 K | 0.119 | –
295.7 K | 0.1189 | –
295.83 K | 0.1187 | –
296.05 K | – | 8.25e-08
296.45 K | – | 8.28e-08
296.76 K | – | 8.24e-08
300.84 K | 0.1175 | –
301 K | 0.1173 | –
301.14 K | 0.1172 | –
301.35 K | – | 8.09e-08
301.73 K | – | 8.06e-08
302.06 K | – | 8.09e-08
318.66 K | 0.1124 | –
318.82 K | 0.1123 | –
318.95 K | 0.1121 | –
319.16 K | – | 7.6e-08
319.54 K | – | 7.59e-08
319.84 K | – | 7.56e-08

C1=CCCCC1 [cyclohexene]
Settings | thermal conductivity [W/m/K] | thermal diffusivity [m2/s]
257.22 K | 0.1406 | –
257.42 K | 0.1404 | –
257.57 K | 0.1404 | –
257.97 K | – | 1.01e-07
258.49 K | – | 1.01e-07
258.86 K | – | 1.01e-07
275.37 K | 0.1348 | –
275.58 K | 0.1346 | –
275.73 K | 0.1346 | –
276.12 K | – | 9.55e-08
276.65 K | – | 9.55e-08
277.03 K | – | 9.56e-08
295.57 K | 0.1284 | –
295.77 K | 0.1282 | –
295.92 K | 0.1281 | –
296.28 K | 0.1278 | –
296.29 K | – | 8.83e-08
296.49 K | 0.1277 | –
296.65 K | 0.1276 | –
296.77 K | – | 8.78e-08
297.03 K | – | 8.88e-08
297.15 K | – | 8.79e-08
297.55 K | – | 8.87e-08
297.94 K | – | 8.88e-08
311.67 K | 0.1231 | –
311.89 K | 0.1229 | –
312.04 K | 0.1228 | –
312.42 K | – | 8.46e-08
312.96 K | – | 8.46e-08
313.32 K | – | 8.42e-08
327.85 K | 0.118 | –
328.07 K | 0.1178 | –
328.22 K | 0.1177 | –
328.59 K | – | 7.97e-08
329.13 K | – | 7.97e-08
329.49 K | – | 7.94e-08

C1CCCCCCC1 [cyclooctane]
Settings | thermal conductivity [W/m/K] | thermal diffusivity [m2/s]
288.7 K | 0.1205 | –
288.96 K | 0.1203 | –
289.17 K | 0.1202 | –
289.34 K | – | 7.48e-08
289.97 K | – | 7.48e-08
290.48 K | – | 7.48e-08
295.85 K | 0.1191 | –
295.88 K | 0.1191 | –
296.09 K | 0.1189 | –
296.21 K | 0.1188 | –
296.43 K | – | 7.39e-08
296.51 K | – | 7.35e-08
297.02 K | – | 7.36e-08
297.3 K | – | 7.36e-08
311.67 K | 0.1156 | –
311.88 K | 0.1154 | –
312.1 K | 0.1154 | –
312.37 K | – | 7.05e-08
312.87 K | – | 7.03e-08
313.4 K | – | 7.04e-08
328.99 K | 0.1119 | –
329.22 K | 0.1118 | –
329.43 K | 0.1117 | –
329.7 K | – | 6.75e-08
330.22 K | – | 6.75e-08
330.71 K | – | 6.72e-08

C1CCCC1 [cyclopentane]
Settings | thermal conductivity [W/m/K] | thermal diffusivity [m2/s]
257.08 K | 0.1428 | –
257.27 K | 0.1426 | –
257.4 K | 0.1425 | –
257.78 K | – | 1.11e-07
258.26 K | – | 1.11e-07
258.6 K | – | 1.11e-07
276.13 K | 0.1349 | –
276.33 K | 0.1348 | –
276.47 K | 0.1348 | –
276.83 K | – | 1.03e-07
277.31 K | – | 1.03e-07
277.68 K | – | 1.03e-07
293.63 K | 0.1281 | –
293.83 K | 0.1279 | –
293.97 K | 0.1278 | –
294.33 K | – | 9.64e-08
294.82 K | – | 9.62e-08
295.17 K | – | 9.61e-08
300.67 K | 0.1254 | –
300.87 K | 0.1253 | –
301.01 K | 0.1251 | –
301.34 K | – | 9.3e-08
301.83 K | – | 9.29e-08
302.17 K | – | 9.28e-08
316.21 K | 0.1195 | –
316.4 K | 0.1193 | –
316.54 K | 0.1192 | –
316.87 K | – | 8.68e-08
317.34 K | – | 8.66e-08
317.67 K | – | 8.65e-08

C1=CCCC1 [cyclopentene]
Settings | thermal conductivity [W/m/K] | thermal diffusivity [m2/s]
258.72 K | 0.1491 | –
258.94 K | 0.1489 | –
259.1 K | 0.1488 | –
259.64 K | – | 1.13e-07
260.25 K | – | 1.12e-07
260.69 K | – | 1.12e-07
276.99 K | 0.1409 | –
277.23 K | 0.1407 | –
277.4 K | 0.1406 | –
277.93 K | – | 1.05e-07
278.57 K | – | 1.05e-07
279.02 K | – | 1.05e-07
294.92 K | 0.133 | –
295.16 K | 0.1328 | –
295.33 K | 0.1327 | –
295.88 K | – | 9.78e-08
296.54 K | – | 9.78e-08
296.99 K | – | 9.74e-08
312.58 K | 0.1258 | –
312.84 K | 0.1256 | –
313.02 K | 0.1255 | –
313.55 K | – | 9.09e-08
314.21 K | – | 9.08e-08
314.67 K | – | 9.05e-08

CCc1ccccc1 [ethylbenzene]
Settings | thermal conductivity [W/m/K] | thermal diffusivity [m2/s]
258 K | 0.1375 | –
258.29 K | 0.1374 | –
258.5 K | 0.1373 | –
259.49 K | – | 9.45e-08
260.41 K | – | 9.43e-08
261.06 K | – | 9.41e-08
277.34 K | 0.1328 | –
277.65 K | 0.1327 | –
277.88 K | 0.1326 | –
278.88 K | – | 9.04e-08
279.84 K | – | 9.02e-08
280.53 K | – | 9.02e-08
295.86 K | 0.1282 | –
296.19 K | 0.128 | –
296.42 K | 0.128 | –
297.44 K | – | 8.66e-08
298.45 K | – | 8.67e-08
299.16 K | – | 8.66e-08
312.38 K | 0.124 | –
312.72 K | 0.1238 | –
312.96 K | 0.1237 | –
313.99 K | – | 8.29e-08
315.01 K | – | 8.28e-08
315.73 K | – | 8.28e-08
329.05 K | 0.1199 | –
329.41 K | 0.1197 | –
329.66 K | 0.1196 | –
330.69 K | – | 7.97e-08
331.74 K | – | 7.96e-08
332.49 K | – | 7.95e-08
